Results published in patent publication US6462171B1, “Peptides and pharmaceutical compositions thereof for treatment of disorders or diseases associated with abnormal protein folding into amyloid or amyloid-like deposits” (New York University, priority 1995, dated 2002).
Values joined by “and” are separate entries in the source; they are usually repeats but may differ in a detail not shown here. Equal entries are not always repeated. Where two headings read alike, the source gives them in different places.

Columns and labels:
[1] = background art; cited from earlier work
Aβ1-42 = Aβ1-42 (Homo sapiens, UniProt P05067); test: Thioflavine T fluorometric assay of amyloid formation by Aβ1-42; format: biochemical; settings: for % of amyloid Aβ1-42: amyloid remaining, 30 μg Aβ with 10-fold molar excess of peptide, 2 days, room temperature, 0.1M tris pH 7.6, Aβ alone = 100
Chain of Aβ1-42 (P05067 18-42): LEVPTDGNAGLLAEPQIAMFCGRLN

Aβ1-40 [2] = test: Thioflavine T fluorometric assay of amyloid formation by Aβ1-40; format: biochemical; settings: for % of amyloid Aβ1-40: amyloid remaining, 30 μg Aβ with 10-fold molar excess of peptide, 2 days, room temperature, 0.1M tris pH 7.6, Aβ alone = 100; for amyloid formed, as % of the amyloid detectable in the absence of inhibitor: 24 h, Aβ 1 mg/ml
Chain of Aβ1-40 (P05067 18-40): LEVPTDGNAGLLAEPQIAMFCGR

PrP106-126 = PrP106-126 (Homo sapiens, UniProt P04156); settings: same concentration as iPrP-12aa
Aβ [3] = biological target: T1, Aβ (Homo sapiens, UniProt P05067); test: Aβ amyloid fibril formation in vitro (Aβ variant not named); format: biochemical; settings: 50-fold molar excess over soluble amyloid monomers
T1 sequence (P05067 672-711 limits assumed): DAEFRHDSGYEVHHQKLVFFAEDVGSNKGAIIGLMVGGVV

[4] = system: gelsolin amyloid (SEQ ID NO: 12); test: Fibril formation by the amyloidogenic peptide of gelsolin amyloid; format: biochemical; settings: 1 mg/ml, 24 hours, molar ratio 1:5 or 1:20
Procedure: (§1) FIG. 8 is a bar graph showing the effect of anti-amyloid peptide 1 on the amyloid formation by Aβ and of peptides derived from the amyloidogenic sequence of gelsolin amyloid and amyloid A. Either β or the fifteen amino acid peptides containing the amyloidogenic sequence of gelsolin amyloid (SEQ ID NO: 12) and amyloid A (SEQ ID NO: 13) were incubated in a concentration of 1 mg/ml for 24 hours without and with anti-amyloid peptide 1 in a molar ratio of 1:5 or 1:20.

[5] = system: amyloid A (SEQ ID NO: 13); test: Fibril formation by the amyloidogenic peptide of amyloid A; format: biochemical; settings: 1 mg/ml, 24 hours, molar ratio 1:5 or 1:20
Procedure: as §1

Aβ [6] = biological target: T1, Aβ; test: Redissolution of preformed Aβ fibrils by anti-amyloid peptide 1; format: biochemical; settings: molar ratio 1:50 (Aβ:anti-amyloid peptide 1), 15 minutes to 24 hours
[7] = Aggregation of the peptide incubated alone; format: physicochemical; settings: for amyloid-like material formed by the peptide alone, electron microscopy: 6 days, same concentration as with Aβ
Procedure: Based on these criteria, an 11 amino acid peptide, called inhibitor of Aβ fibrillogenesis peptide (iAβ) was designed, which has a low probability of adopting a β-sheet conformation due to the presence of proline residues (FIG. 9). The circular dichroism spectrum of iAβ in aqueous solution was typical of unordered structures (FIG. 10). Samples of iAβ at different concentrations as well as samples incubated for several days have similar spectra (FIG. 10).
The inhibition of fibril formation and the dissolution of preformed fibrils by iAβ was also analyzed by negative-staining electron microscopy (FIGS. 15a -f). Aβ1-40 (2 mg/ml) preincubated for 6 days at 37° C. formed typical 8-10 nm unbranched fibrils (Castano et al., biochem. Biophys. Res. Commun. 141:782-789, 1986) (FIG. 15a).

Aβ1-40 [8] = test: Negative-staining electron microscopy of Aβ1-40 fibril formation and dissolution; format: biochemical; settings: for effect on Aβ1-40 fibril formation by electron microscopy: Aβ1-40 2 mg/ml, 40-fold excess from the start, 6 days, 37° C.
[9] = biological target: T2, Aβ1-40 with human plasma apolipoprotein E (Homo sapiens, UniProt P05067); test: Promotion of Aβ fibrillogenesis induced by apolipoprotein E, thioflavine T assay; format: biochemical; settings: 30 μg Aβ1-40, 2.4 μg apoE, 1:10 (Aβ:iAβ), 24 h, room temperature
T2 construct: 30 μg of Aβ1-40 were incubated with or without 2.4 μg of human plasma apolipoprotein E; made in house; host or cells: Aβ1-40: chemical solid-phase synthesis
Procedure: Samples of Aβ alone or Aβ/apoE were incubated also with 1:10 (Aβ:iAβ) of the inhibitor. All the incubations were performed for 24 h at room temperature. Amyloid formation was evaluated by the thioflavine T fluorometric assay. The average of two different experiments is shown.

Aβ1-42 fibrils = Aβ1-42 fibrils (Homo sapiens, UniProt P05067); test: Dissolution of preformed Aβ1-42 fibrils, fluorometric quantitation; format: biochemical; settings: 40-fold molar excess of iAβ, 24 h incubation
[10] = system: amyloid-A (AA) deposition; test: Experimental murine model of amyloid-A amyloidosis (AEF and silver nitrate), amyloid in spleen; format: in vivo, BALB/c mice
[11] = biological target: Aβ with heparan-sulfate proteoglycan (Homo sapiens, UniProt P05067); test: Heparan-sulfate proteoglycan-induced Aβ fibrillogenesis; format: biochemical; settings: preliminary experiments
Chain of Aβ with heparan-sulfate proteoglycan (P05067 672-711 limits assumed): as above

Aβ1-40 [12] = test: Aβ-iAβ binding by quenching of intrinsic Tyr10 fluorescence of Aβ
Aβ1-40 fibrils = Aβ1-40 fibrils (Homo sapiens, UniProt P05067); test: Dissolution of preformed Aβ1-40 fibrils, fluorometric quantitation; format: biochemical
Chain of Aβ1-40 fibrils (P05067 672-711): as the sequence (P05067 672-711 limits assumed) above

[13] = Kisilevsky et al., 1995; cited from earlier work

Compound: COc1cccc2c1C(=O)c1c(O)c3c(c(O)c1C2=O)C[C@@](O)(C(=O)CO)C[C@@H]3O[C@H]1C[C@H](N)[C@H](I)[C@H](C)O1 [IDOX, Anthracycline 4′-iodo-4′-deoxy-doxorubicin]
- toxicity [1]: extremely toxic

Compound: Aβ18-21: short Aβ fragment (VFFA) [reference compound]
- % of amyloid Aβ1-42 (Aβ1-42): 98.5 ± 5.3%
- % of amyloid Aβ1-40 (Aβ1-40 [2]): 105 ± 3.2%

Compound: CP1: unrelated control peptide of 12 amino acids (VHVSEEGTEPA) [reference compound]
- % of amyloid Aβ1-42 (Aβ1-42): 101.3 ± 1.9%
- % of amyloid Aβ1-40 (Aβ1-40 [2]): 98.4 ± 1.2%
- effect on amyloid formation by PrP106-126 (PrP106-126): No significant effect

Compound: CP2: control peptide (GYLTVAAVFRG) [reference compound]
- % of amyloid Aβ1-42 (Aβ1-42): 125.3 ± 3.9%
- % of amyloid Aβ1-40 (Aβ1-40 [2]): 111.3 ± 4.1%

Compound: CP3: control peptide (PADVPLAPRAVD) [reference compound]
- % of amyloid Aβ1-42 (Aβ1-42): 94.4 ± 1.4%
- % of amyloid Aβ1-40 (Aβ1-40 [2]): 87.7 ± 2.0%

Compound: Leu Val Phe Phe Ala [Aβ17-21, reference compound]
- % of amyloid Aβ1-42 (Aβ1-42): 92.3 ± 3.4%
- % of amyloid Aβ1-40 (Aβ1-40 [2]): 89.2 ± 2.7%

Compound: Pro-Phe-Phe [iAβ6]
- % of amyloid Aβ1-42 (Aβ1-42): 88.9 ± 2.6%
- % of amyloid Aβ1-40 (Aβ1-40 [2]): 108.1 ± 7.9%

Compound: anti-amyloid peptide 1: 15-amino acid anti-amyloid peptide (SRGDLPFFPVPIGDS)
- inhibition of amyloid fibril formation (Aβ [3]): 90%
- inhibition of fibril formation of the gelsolin related amyloid peptide [4]: inhibits the fibril formation
- inhibition of fibril formation of the amyloid-A peptide [5]: inhibits the fibril formation
- dissolution of preformed Aβ fibrils (Aβ [6]): Dissolution of preformed fibrils also occurred

Compound: control peptide: 12 residue non-related control peptide (VHVSEEGTEPEA) [reference compound]
- effect on amyloid formation by Aβ1-42 (Aβ1-42; FIG. 12): did not alter amyloid formation
- amyloid-like material formed by the peptide alone, electron microscopy [7]: formed no amyloid-like material
- effect on amyloid formation by Aβ1-40 (Aβ1-40 [2]; FIGS. 12 and 13): did not alter amyloid formation
- effect on Aβ1-40 fibril formation by electron microscopy (Aβ1-40 [8]): did not produce any effect

Compound: iAβ1: shorter derivative of iAβ (RDLPFFPVD)
- % of amyloid Aβ1-42 (Aβ1-42): 85.7 ± 11.6%
- % of amyloid Aβ1-40 (Aβ1-40 [2]): 55.2 ± 2.1%

Compound: iAβ2: seven amino acid residue shorter derivative of iAβ (LPFFPVD)
- % of amyloid Aβ1-42 (Aβ1-42): 61.3 ± 3.0%
- % of amyloid Aβ1-40 (Aβ1-40 [2]): 36.7 ± 4.8%

Compound: iAβ3: shorter derivative of iAβ; valine inserted into the sequence of SEQ ID NO:18 (LPFFVD)
- % of amyloid Aβ1-42 (Aβ1-42): 87.1 ± 6.1%
- % of amyloid Aβ1-40 (Aβ1-40 [2]): 90.1 ± 1.3%

Compound: iAβ4: five residue derivative of iAβ; proline substituted for valine of Aβ 17-21, aspartic acid at the end (LPFFD)
- % of amyloid Aβ1-42 (Aβ1-42): 45.4 ± 0.6%
- % of amyloid Aβ1-40 (Aβ1-40 [2]): 28.7 ± 1.7%

Compound: iAβ5: shorter derivative of iAβ (LPFF)
- % of amyloid Aβ1-42 (Aβ1-42): 82.4 ± 5.0%
- % of amyloid Aβ1-40 (Aβ1-40 [2]): 92.1 ± 1.3%

Compound: iAβ: 11 amino acid peptide partially homologous to Aβ residues 17-21, with proline residues and charged ends (RDLPFFPVPID)
- inhibition of amyloid formation (Aβ1-42; 5-fold molar excess of iAβ over Aβ1-42, 24 h): 28.7%
- inhibition of amyloid formation (Aβ1-42; 20-fold molar excess of iAβ over Aβ1-42, 24 h): 72.3%
- inhibition of amyloid formation (Aβ1-42; 40-fold molar excess of iAβ over Aβ1-42, 24 h): 80.6%
- % of amyloid Aβ1-42 (Aβ1-42): 57.9 ± 1.3%
- amyloid-like material formed by the peptide alone, electron microscopy [7]: formed no amyloid-like material
- aggregation of the peptide ([7]; even at high concentrations (4 mg/ml) or after more than 30 days of incubation): did not aggregate
- effect on apo E-induced promotion of Aβ fibrillogenesis [9]: blocked the promotion of Aβ fibrillogenesis
- amyloid formed, as % of the amyloid detectable in the absence of inhibitor (Aβ1-40 [2]; 5-fold molar excess of iAβ): 33.9%
- amyloid formed, as % of the amyloid detectable in the absence of inhibitor (Aβ1-40 [2]; 20-fold molar excess of iAβ): 13.7%
- % of amyloid Aβ1-40 (Aβ1-40 [2]): 25.5 ± 0.7%
- Aβ1-42 fibril reduction (Aβ1-42 fibrils): 51%
- decrease of the area occupied by amyloid in the spleen versus animals treated without the inhibitor ([10]; 5 mg iAβ injected together with AEF after 24 h preincubation, 5 days): approximately 86.4%
- amyloid in spleen by image analysis, AEF/SN + iAβ, single animal ([10]; AEF 100 μg preincubated 24 h with 5 mg peptide, sacrificed at 5 days, AEF/SN alone average 31.2): 4.35 and 3.68 and 5.32 and 3.67
- amyloid in spleen by image analysis, AEF/SN + iAβ, Average ± SE ([10]; four animals, AEF 100 μg preincubated 24 h with 5 mg peptide, 5 days, AEF/SN alone 31.2 ± 0.75): 4.26 ± 0.39
- effect on heparan-sulfate proteoglycan-induced Aβ fibrillogenesis [11]: blocked
- maximum quenching of Aβ fluorescence, % of total fluorescence (Aβ1-40 [12]; at approximately 4 μM of iAβ, 25° C., 5 mM Tris pH 7.4): 12.6%
- Kd (Aβ1-40 [12]; non-linear regression of binding data to a rectangular hyperbola, read-out: relative dissociation constant): 75.9 ± 6.5 nM
- effect on Aβ1-40 fibril formation by electron microscopy (Aβ1-40 [8]): only amorphous aggregates were obtained
- dissolution of preformed Aβ1-40 fibrils by electron microscopy (Aβ1-40 [8]; fibrils preformed 6 days at 37° C., then 2 days with 1:40 molar ratio Aβ:iAβ): almost completely dissolved
- incubation time to maximum level of fibril dissolution (Aβ1-40 fibrils; 40-fold molar excess of iAβ (FIG. 14B), Aβ variant not stated): 2 days
- dissolution of preformed Aβ1-40 fibrils (Aβ1-40 fibrils; 40-fold molar excess of iAβ, 24 h incubation): almost complete dissolution

Compound: poly- (vinylsulfonate)
- toxicity [13]: acutely toxic
